Drawing on PubChem BioAssay AID504539 (Broad Institute, 2011), this text covers AC50 for 93 compounds.

Values joined by “and” are separate entries in the source; they are usually repeats but may differ in a detail not shown here. Identical values can stand only once. A value given as a limit tells only on which side of the number the result lay.

This experiment relates to Cell-based prion protein 5' UTR reporter, plate reader. The experiment can be described thus: prion protein 5' UTR mRNA inhibitors – cell-based, plate reader, cherry-picked samples, dose response (AID 504539).

As a reminder, the AC50 is the concentration at which the activity in the assay is half-maximal.

`C[C@H]1CCC/C=C/[C@@H]2C[C@H](O)C[C@H]2[C@H](O)/C=C/C(=O)O1`: the AC50 is 72 nM and 51 nM.

Regarding `Cc1nn(-c2ccccc2)c(C)c1/C=N/NC(=O)c1cc(-c2ccccc2)n[nH]1`, the AC50 was 783 nM.

Take `CCOc1ccc(/C=C2\SC(=S)N(CCC(=O)O)C2=O)cc1`: the AC50 is 277 nM.

`Clc1ccccc1/C=C/c1nc(-c2ccccn2)no1`: the AC50 is 540 nM.

On to `CC1CCOC(=O)C=CC=CC(=O)OC2CC3OC4C5OC5(C)C(O)CC4(COC(=O)C1O)C2(C)C31CO1` (stereo not drawn), for which the AC50 was 148 nM.

For the compound `CNc1c2cccc(C)c2nc2c(C(=O)NCCN(C)C)cccc12`, the AC50 is 307 nM.

Consider `Cc1c(C(=O)OCC(C)C)[nH]c2c1C(=O)CC(c1ccco1)C2` (stereo not drawn), for which the AC50 was 1260 nM.

For `CCN(CCCl)c1cc(CN(C)C)cc(NC(=O)c2ccc(C(=O)Nc3cc(CN(C)C)cc(N(CC)CCCl)c3)cc2)c1`, the AC50 was 472 nM.

For `O=c1oc2ccccc2cc1-c1cn(-c2ccccc2)c(=S)[nH]1`, the AC50 is 776 nM.

As for `CCC(C)C1NC(=O)C(NC(=O)C(CC(C)C)N(C)C(=O)C2CCCN2C(=O)C(C)O)C(C)OC(=O)C(Cc2ccc(OC)cc2)N(C)C(=O)C2CCCN2C(=O)C(CC(C)C)NC(=O)[C@H](C)C(=O)[C@H](C(C)C)OC(=O)CC1O` (stereo partly drawn), the AC50 is 84 nM.

For the compound `CCOc1ccc(C(=O)O/N=C(\N)c2ccccn2)cc1`, the AC50 is 134 nM.

For `CC[C@@]1(O)C(=O)OCc2c1cc1n(c2=O)Cc2cc3c(NC(=O)CN)cccc3nc2-1`, the AC50 was 232 nM.

Regarding `CC(=O)OC1C(O)C(C)OC(OC2C(OC(=O)C3CCC4C(C3)OC3(CC(OC(=O)/C=C/c5ccccc5)C(C)CO3)C43CO3)OC(C)C(O)C2OC(C)=O)C1O` (stereo not drawn), the AC50 is 104 nM.

Turning to `C=Cc1cc(OC)c2c(c1)c(=O)oc1c2cc(OC)c2c(O)ccc(C3OC(C)C(O)C(C)(O)C3O)c21` (stereo not drawn), the AC50 was 211 nM.

`Cc1c(C(=O)N/N=C/c2ccc(Cl)cc2)[nH]c2ccc(Cl)cc12`: the AC50 is 1090 nM.

For the compound `CC(=O)N(/N=C1\Sc2ccccc2C1=O)c1ccc(C)cc1C`, the AC50 was 4720 nM.

Take `C[C@@H]1O[C@@H](O[C@H]2C[C@@H](O)[C@]3(CO)[C@H]4[C@H](O)C[C@]5(C)[C@@H](C6COC(=O)C6)CC[C@]5(O)[C@@H]4CC[C@]3(O)C2)[C@H](O)[C@H](O)[C@H]1O` (stereo partly drawn): the AC50 is 915 nM.

As to `CN1CCc2c(sc(NC(=O)c3ccc([N+](=O)[O-])o3)c2C(N)=O)C1`, the AC50 was 972 nM.

Take `Cc1cc(C2=NNC(=NC3CC3)SC2)c(C)n1-c1ccccc1F`: the AC50 was below 38 nM.

Regarding `O=C(Nc1nc2cc3c(cc2s1)OCCO3)c1ccco1`, the AC50 was 234 nM.

Take `COc1cc(SC)ccc1C(=O)Nc1ccc(Cl)cn1`: the AC50 was 567 nM.

Consider `COc1ccc(OC)c(N/C=C/C(=O)c2ccccc2)c1`, for which the AC50 is 558 nM.

For the compound `CCc1ccc(-c2cc(C(=O)Nn3cnnc3)c3ccccc3n2)cc1`, the AC50 was 510 nM.

As to `CC12CCC(O)CC1CCC1C2CCC2(C)C(C3=CC(=O)OC3)CCC12O` (stereo not drawn), the AC50 is 230 nM.

As to `CN(c1ccc2nc3ccccc3c(=O)n2n1)C1CCCCC1`, the AC50 was 574 nM.

In the case of `O=C(O)c1ccc(N/N=C/c2ccc3c(c2)OCO3)cc1`, the AC50 is 419 nM.

For the compound `O=C(NC1CCCCC1)c1n[nH]c2c1CCCCC2`, the AC50 is 759 nM.

Take `Cc1ccc(-c2cc3c(N=O)c4ccccc4c-3n[nH]2)cc1`: the AC50 was 438 nM.

Consider `Cc1cc(C(=O)COC(=O)c2ccccc2Br)c(C)n1CC1CCCO1` (stereo not drawn), for which the AC50 is 90 nM.

On to `Cc1ccc(OCC(=O)c2cc(C)n(-c3ccccc3)c2C)c([N+](=O)[O-])n1`, for which the AC50 is 3270 nM.

With `CCN(CC)c1ccc(/C=N/N=C(N)N)c(O)c1`, the AC50 is 1410 nM.

For `CC1=CC2OC3CC4OC(=O)C=CC=CC(C(C)O)OCC(O)C5(C)OC5C(=O)OCC2(CC1O)C4(C)C31CO1` (stereo not drawn), the AC50 is 95 nM.

Take `CC(C)(C)C1C/C(=C/c2ccccn2)C(=O)/C(=C/c2ccccn2)C1` (stereo not drawn): the half-maximal activity concentration (AC50) is 815 nM.

In the case of `CCCCN=C[C@]12CCC(O)CC1(O)CCC1[C@@H]2CC[C@]2(C)[C@H](C3C=CC(=O)O3)CCC12O` (stereo partly drawn), the AC50 is 243 nM.

Take `CCN(CCO)c1ccc(N=Nc2cc(C)[nH]n2)cc1`: the AC50 was 471 nM.

Turning to `O=C(O)c1cccc(N/N=C/c2cccs2)c1`, the AC50 is 349 nM.

As for `O=C(CSc1nnc(-c2ccccc2)o1)Nc1ccccc1F`, the concentration at half-maximal activity (AC50) is 675 nM.

As to `CC(=O)c1ccc(Oc2cc(C)nc(-n3nc(C)cc3C)n2)cc1`, the AC50 was 1250 nM.

On to `C=CC[n+]1c(-c2ccc(C)cc2)csc1Nc1ccc(NC(C)=O)cc1`, for which the AC50 was 3620 nM.

With `CCn1c(C)nc2cc(-c3nc4n(n3)Cc3ccccc3-4)ccc21`, the AC50 is 44 nM.

As to `O=C(c1ccc(Br)cc1)c1cc([N+](=O)[O-])ccc1N1CCCCC1`, the AC50 is 628 nM.

Take `Cc1c(C(=O)OCc2ccccc2)[nH]c2c1C(=O)CC(c1ccco1)C2` (stereo not drawn): the AC50 was 388 nM.

Regarding `CSC1SCC2C(=O)N(C)C(C(C)C)C(=O)OCC(NC(=O)c3cnc4ccccc4n3)C(=O)NC(C)C(=O)N(C)C1C(=O)N(C)C(C(C)C)C(=O)OCC(NC(=O)c1cnc3ccccc3n1)C(=O)NC(C)C(=O)N2C` (stereo not drawn), the AC50 is below 38 nM.

As for `CCCN1C=CC(=C2C(=O)c3ccccc3C2=O)C=C1`, the AC50 was 169 nM.

As to `c1cc2c(cc1C1=NNC(=NC3CC3)SC1)OCCO2`, the AC50 was 189 nM.

Turning to `COC(=O)CCC(=O)NC(=S)Nc1sc(C)c(C)c1C(N)=O`, the AC50 was 636 nM.

In the case of `COc1ccccc1C(=O)Nc1nc2ccccc2[nH]1`, the AC50 was 178 nM.

Regarding `CC12CCC3C(CCC4(O)CC(O)CCC34C=NO)C1(O)CCC2C1=COC(=O)C1` (stereo not drawn), the AC50 was 160 nM.

As to `COc1cc(-c2noc(C)c2-c2ccc(N(C)C)nc2)cc(OC)c1OC`, the AC50 is 358 nM.

Turning to `C[C@H]1[C@@H](OS(=O)(=O)O)C[C@@H]2C[C@H]([C@@H](O)c3cc(=O)[nH]c(=O)[nH]3)NC3=NC[C@H]1N32`, the AC50 is 2560 nM.

On to `Cc1nc(SCC(=O)Nc2nccs2)c(C#N)c(C)c1C`, for which the AC50 is 991 nM.

With `Cc1ccc(C(=O)O/N=C(\N)c2ccccn2)cc1C`, the AC50 was 708 nM.

For the compound `Cc1ccc(C(=O)Nc2cnc3ccccc3c2)cc1`, the AC50 was 94 nM.

On to `Cc1ccc(C(=O)c2cc([N+](=O)[O-])ccc2N2CCOCC2)c(C)c1`, for which the AC50 was 2940 nM.

Regarding `COc1ccc(/C=N/NC(=O)c2[nH]c3ccc(Br)cc3c2-c2ccccc2)cc1`, the AC50 is 209 nM.

In the case of `COc1ccc(C2=Nn3c(nnc3-c3ccccc3OC)SC2)cc1OC1CCOC1` (stereo not drawn), the AC50 was 3560 nM.

As to `COc1ccc(C(=O)NN(C)c2nc(C(F)(F)F)nc3ccccc23)cc1`, the AC50 is 163 nM.

On to `CC(C)(C)C(=O)Nc1cc2nn(-c3ccccc3)nc2cc1Cl`, for which the AC50 was below 38 nM.

Regarding `COc1cccc2c1C(=O)c1c(O)c3c(c(O)c1C2=O)CC(O)(C(C)=O)CC3OC1CC(N(C)C)C(O)C(C)O1` (stereo not drawn), the AC50 was 165 nM.

As for `C=C1CC(Cn2cc(Br)c(=O)[nH]c2=O)(c2ccc(-c3ccccc3)cc2)OC1=O` (stereo not drawn), the AC50 is 1160 nM.

As for `O=C(c1ccc(Cl)cc1)N1CCCCC(Sc2nnc(-c3ccc4c(c3)OCO4)o2)C1=O` (stereo not drawn), the AC50 was 419 nM.

`OCCCNc1cc(-c2ccnc(Nc3cccc(Cl)c3)n2)ccn1`: the AC50 is 181 nM.

In the case of `Cc1cc(C=C2C(=O)c3ccccc3C2=O)c(C)n1-c1ccccc1`, the AC50 is 809 nM.

As to `COc1cc(/C=C2\COC/C(=C\c3cc(OC)c(OC)c(OC)c3)C2=O)cc(OC)c1OC`, the AC50 is 788 nM.

For `Cc1ccc(C(=O)Nc2cc3ccccc3oc2=O)cc1`, the AC50 is 143 nM.

With `O=C1/C(=C\c2ccc([N+](=O)[O-])cc2)CS(=O)(=O)C/C1=C/c1ccc([N+](=O)[O-])cc1`, the AC50 is 2060 nM.

For the compound `COCCn1c(C)cc(C2=NNC(=NC3CC3)SC2)c1C`, the AC50 was below 38 nM.

For the compound `NC(=S)NN=Cc1nccc2ccccc12`, the AC50 was 2800 nM.

With `O=C(OCC(F)(F)F)c1cccc(COc2ccc3ccccc3c2)c1`, the AC50 is 376 nM.

In the case of `Cc1ccsc1/C=N/Nc1cccc(C(=O)O)c1`, the concentration at half-maximal activity (AC50) was 355 nM.

In the case of `O=C(O)c1ccc(N/N=C/c2ccc3nccnc3c2)cc1`, the AC50 was 560 nM.

Regarding `COc1cc(NC(=O)c2cccs2)c(C(=O)OCC(=O)c2cc(C)n(-c3ccccc3)c2C)cc1OC`, the AC50 is 989 nM.

Turning to `Cc1ccoc1C(=O)Nc1ccc(CC(=O)O)cc1`, the AC50 was 374 nM.

Consider `Cc1ccc(C(=O)NCCc2ccccc2)cc1`, for which the AC50 is 612 nM.

As to `Cc1cc(C)c(C#N)c(SCc2nnc(-c3ccccc3)o2)n1`, the AC50 is 1990 nM.

Turning to `O=C(NCCc1ccccc1)c1ccc2c(c1)OCCCO2`, the AC50 was 187 nM.

In the case of `COc1ccc(/C=C2\SC(=O)N(CCCC(=O)Nc3cc(Cl)ccc3C(=O)O)C2=O)cc1`, the AC50 was 242 nM.

In the case of `C(=N\Nc1ccc2ccccc2n1)/c1ccc2c(c1)OCCO2`, the AC50 is 1220 nM.

`COC(=O)CCn1nnc(-c2ccc(C(C)C)cc2)n1`: the AC50 was 314 nM.

Turning to `CC(=Nc1ccccc1)C1=C(O)C(Cc2ccc(O)cc2)NC1=O` (stereo not drawn), the AC50 was 379 nM.

On to `COc1cc(C2c3[nH]c4ccccc4c3CC3COC(=O)N32)cc(OC)c1O` (stereo not drawn), for which the AC50 is 270 nM.

Turning to `COc1ccc(CCc2cc(OC)c(OC)c(OC)c2)cc1`, the AC50 is 40 nM.

Consider `CC(C)CCCCCCCCCCCCC(=O)NCC(=O)NC1C(O)C(O)C(Nc2ncnc3nc[nH]c23)OC1C(O)CO` (stereo not drawn), for which the AC50 was 87 nM.

For `O=C(O)CSCC(=O)Nc1ccc(C2CCCCC2)cc1`, the AC50 is 1560 nM.

As to `COc1ccc(S(=O)(=O)N2c3cc(Cl)ccc3Oc3nc4ccccc4nc32)cc1`, the AC50 was 1350 nM.

With `Clc1ccc(-n2ncc3c(N4CCCCCC4)ncnc32)cc1`, the half-maximal activity concentration (AC50) is 795 nM.

As for `O=[N+]([O-])c1cccc2nc3ccccc3c(NCCCn3ccnc3[N+](=O)[O-])c12`, the AC50 was 76 nM.

`COC(=O)C1=C(C(=O)OC)SC2(S1)C(C(=O)OC)=C(C(=O)OC)Sc1c2ssc1=O`: the AC50 is 2620 nM.

For the compound `CCOc1ncccc1C(=O)N1CCN(c2cccc(C)c2C)CC1`, the AC50 is 517 nM.

Regarding `Cc1ccc(-c2cn3cc(C)ccc3n2)cc1`, the AC50 was 113 nM.

`C/C=C/COC(=O)c1[nH]c2c(c1C)C(=O)CC(c1ccco1)C2` (stereo not drawn): the half-maximal activity concentration (AC50) was 660 nM.

For `COC(=O)c1c(NC(=O)c2ccc([N+](=O)[O-])o2)sc2c1CCN(C(C)C)C2`, the AC50 is 2860 nM.

For `O=C1C(=C2SCCCS2)CC/C1=C\c1ccc(F)cc1`, the half-maximal activity concentration (AC50) is 292 nM.
